According to patent publication US6417010B1, “Methods and apparatus for synthesizing labeled combinatorial chemistry libraries” (Discovery Partners International, priority 1993, dated 2002):

Tested on: Monoclonal antibody 3E7
Experiment: Magnetic selection of peptide-bearing ELAMS by microbead-conjugated 3E7 antibody
Format: binding
Conditions: PBS, 16 hour incubation at 4° C., high strength magnet
Protocol: After a 16 hour incubation at 4° C., beads which bind the 3E7 antibody can be selected using a high strength magnet. The identifier information of the selected beads is then analyzed with a model DAS-4001EM or DAS-4001 detector (Bio Medic Data Systems).

Tyr-Gly-Gly-L-Phe-L-Leu [YGGFL]
selection of ELAMS by the 3E7 antibody: selected by the 3E7 antibody
